We go through 14 molecules from PMC9863987, “Identification of Aryl Polyamines Derivatives as Anti-Trypanosoma cruzi Agents Targeting Iron Superoxide Dismutase” (Pharmaceutics, 2022).

Assay [1] concerns T. cruzi SN3 strain epimastigotes. The experiment in a line: Screening against extracellular epimastigotes, SN3 strain (resazurin). Format: cell-based, Trypanosoma cruzi. The note with it: for IC50: Trypanosoma cruzi, epimastigotes, 48 h treatment + 24 h resazurin, mean of three ± SD, read-out: Activity IC50 T. cruzi SN3 Strain E; for Selectivity Index T. cruzi SN3 Strain E: IC50 Vero cells/IC50 epimastigotes. The protocol: (§1) Three different T. cruzi […] strains—MHOM/Pe/2011/Arequipa, discrete typing unit (DTU) V [26]; IRHOD/CO/2008/SN3, DTU I [27]; TINF/CH/1956/Tulahuen, DTU VI [26]—were grown at 28 °C in Gibco® RPMI 1640 Medium supplemented as previously reported, and used for in vitro screening.
(§2) Trypanocidal activity against epimastigotes was tested as previously reported. In brief, 5 × 10^5 mL^−1 epimastigotes culture medium were treated by adding the compounds in serial dilutions from 100 to 0.2 µM in 96-well plates (200 µL·well^−1) for 48 h. BZN and untreated growth control were also included in triplicate. Later, 20 μL of resazurin sodium salt (Sigma-Aldrich, St. Louis, MO, USA) was added, and the plates were incubated for another 24 h. Finally, the absorbance of the wells was measured at 570/600 nm and related to the control. The trypanocidal activity was expressed as the IC50 (inhibitory concentration 50) value using GraphPad Prism 6 software.
(In general: Alamar Blue is a resazurin reagent that responds to reducing activity.)

The next assay has as its system Vero cells. The experiment in a line: Cytotoxicity test on mammalian Vero cells (resazurin). The note with it: Chlorocebus sabaeus, 48 h treatment + 24 h resazurin, mean of three ± SD, read-out: Toxicity IC50 Vero Cell. The assay is classed as cell-based. The procedure: Cytotoxicity against mammalian Vero cells (EACC No. 84113001) was tested as previously reported. In brief, 1.25 × 10^4 Vero cells·mL^−1, cultured at 37 °C, were treated by adding the compounds in serial dilutions from 400 to 1 µM in 96-well plates (200 µL·well^−1) for 48 h. BZN and untreated controls were also included in triplicate. Later, 20 μL of resazurin sodium salt (Sigma-Aldrich) was added, and the plates were incubated for another 24 h. Finally, cell viability was determined following the same procedure as described to assess the trypanocidal activity in the epimastigotes.

The subject of assay [2] is T. cruzi Arequipa strain epimastigotes. Briefly: Screening against extracellular epimastigotes, Arequipa strain (resazurin). The assay is classed as cell-based, Trypanosoma cruzi. The note with it: for IC50: Trypanosoma cruzi, epimastigotes, 48 h treatment + 24 h resazurin, mean of three ± SD, read-out: Activity IC50 T. cruzi Arequipa Strain E; for Selectivity Index T. cruzi Arequipa Strain E: IC50 Vero cells/IC50 epimastigotes. The protocol: as §1, §2

The test system of assay [3] is T. cruzi Tulahuen strain epimastigotes. The experiment in a line: Screening against extracellular epimastigotes, Tulahuen strain (resazurin). The assay is classed as cell-based, Trypanosoma cruzi. The note with it: for IC50: Trypanosoma cruzi, TULAHUEN, epimastigotes, 48 h treatment + 24 h resazurin, mean of three ± SD, read-out: Activity IC50 T. cruzi Tulahuen Strain E; for Selectivity Index T. cruzi Tulahuen Strain E: IC50 Vero cells/IC50 epimastigotes. The protocol:
as §1, §2

Assay [4] concerns T. cruzi Arequipa strain trypomastigotes. Briefly: Screening against bloodstream trypomastigotes, Arequipa strain (resazurin). Format: cell-based, Trypanosoma cruzi.
The test system of assay [5] is T. cruzi Arequipa strain amastigotes. Briefly: Screening against intracellular amastigotes in Vero cells, Arequipa strain (Giemsa counting). Format: cell-based, Trypanosoma cruzi. The protocol: (§3) TINF/CH/1956/Tulahuen, DTU VI [26]—were grown at 28 °C in Gibco® RPMI 1640 Medium supplemented as previously reported, and used for in vitro screening. Trypanocidal activity against amastigotes was tested as previously reported. In brief, bloodstream trypomastigotes (BTs), obtained by cardiac puncture from infected BALB/c mice, were used to infect 1 × 10^4 Vero cells·well^−1 in 24-well plates with rounded coverslips at a multiplicity of infection (MOI) ratio of 10:1. After 24 h of infection, non-internalized trypomastigotes were washed and the infected cells were treated by adding the compounds in serial dilutions from 50 to 0.5 µM in […] for 72 h. BZN and untreated growth controls were also included in triplicate. Later, the number of amastigotes and infected cells were determined in Giemsa stained preparations by analysing 500 host cells randomly distributed in microscopic fields. The trypanocidal activity was expressed as the IC50 using GraphPad Prism 6 software (version 6.07).

The subject of assay [6] is T. cruzi Tulahuen strain amastigotes. Briefly: Screening against intracellular amastigotes in Vero cells, Tulahuen strain (Giemsa counting). The assay is classed as cell-based, Trypanosoma cruzi. The protocol:
as §3

Assay [7] deals with T. cruzi Tulahuen strain trypomastigotes. The experiment in a line: Screening against bloodstream trypomastigotes, Tulahuen strain (resazurin). The assay is classed as cell-based, Trypanosoma cruzi.
Where [8] appears, read: IC50 Vero cells/IC50 trypomastigotes.
The mark [9] stands for this setting: IC50 Vero cells/IC50 amastigotes.

Each structure is given as a SMILES string. Counter-ions that a name gives are not always drawn.

As to `c1ccc(CNCCN(CCNCc2ccccn2)Cc2ccc3ccccc3c2)nc1` [Compound 1], the IC50 was 27.1 ± 2.1 µM in assay [1], 28.3 ± 2.4 µM in assay [2] and 26 ± 2.7 µM in assay [3]. The CC50 in the assay on Vero cells is 58.1 ± 6 µM.

Take `c1cncc(CNCCN(CCNCc2cccnc2)Cc2ccc3ccccc3c2)c1` [Compound 2]: the “Selectivity Index T. cruzi Arequipa Strain T” value in assay [4] (setting [8]) was determined as 8.0. For the same molecule, the IC50 in assay [4] (Trypanosoma cruzi, trypomastigotes, 24 h + 4 h resazurin, mean of three ± SD) was found to be 4.8 ± 0.5 µM; in assay [1] it was 5.7 ± 0.5 µM; in assay [2], 2.9 ± 0.3 µM; in assay [3] it was 15.8 ± 1.4 µM; in assay [5] (Trypanosoma cruzi, amastigotes in Vero cells, 72 h, mean of three ± SD) it was 6.2 ± 0.6 µM. Also, the “Selectivity Index T. cruzi SN3 Strain E” value in assay [1] came out at 6.7. For the same molecule, the CC50 in the assay with Vero cells worked out at 38.5 ± 4.1 µM. Moreover, in assay [2], the “Selectivity Index T. cruzi Arequipa Strain E” value is listed as 13.5. Further, in assay [3], the “Selectivity Index T. cruzi Tulahuen Strain E” value is 2.4. In addition, the “Selectivity Index T. cruzi Arequipa Strain A” value in assay [5] (setting [9]) was found to be 6.2.

Turning to `c1ccc2cc(CN(CCNCc3ccncc3)CCNCc3ccncc3)ccc2c1` [Compound 3], the results for the IC50 in assay [1], in assay [2] and in assay [3] were 21.8 ± 1.9 µM, 18.7 ± 1.6 µM and 19.2 ± 1.7 µM, respectively. Moreover, the CC50 with Vero cells amounted to 25.8 ± 2.7 µM.

`c1ccc2cc(CN(CCNCc3ccnc4ccccc34)CCNCc3ccnc4ccccc34)ccc2c1` [Compound 4, 1,7-Bis(4-quinolylmethyl)-4-(2-naphthylmethyl)-1,4,7-triazaheptane Pentahydrochloride]: the IC50 in assay [1] turned out to be 11 ± 1 µM; in assay [2], 25.2 ± 2.7 µM; in assay [3], 22.6 ± 3.3 µM. Besides, the CC50 with Vero cells was found to be 5.3 ± 0.4 µM.

As to `O=C(NCCN(CCNC(=O)c1ccccn1)Cc1ccc2ccccc2c1)c1ccccn1` [Compound 6], the IC50 in assay [1] worked out at 10 ± 1.2 µM; in assay [2] it was 12 ± 1.1 µM; in assay [3] it was 16.1 ± 1.7 µM. Further, the CC50 in the assay on Vero cells turned out to be 63.2 ± 5.7 µM.

Turning to `CN(C)c1cccc2c(S(=O)(=O)N(CCNCc3ccccn3)CCNCc3ccccn3)cccc12` [Compound 7], the values for the IC50 in assay [1], in assay [2] and in assay [3] were 10.4 ± 1.1 µM, 11.5 ± 1.1 µM and 12.1 ± 1.1 µM, respectively. Also, the CC50 in the assay on Vero cells worked out at 41.3 ± 3.7 µM.

Consider `CN(C)c1cccc2c(S(=O)(=O)N(CCNCc3cccnc3)CCNCc3cccnc3)cccc12` [Compound 8], for which, in assay [6] (setting [9]), the “Selectivity Index T. cruzi Tulahuen Strain A” value was found to be 8.0. Moreover, the concentration for half-maximal inhibition (IC50) in assay [6] (Trypanosoma cruzi, TULAHUEN, amastigotes in Vero cells, 72 h, mean of three ± SD) stood at 17 ± 1.5 µM; in assay [7] (Trypanosoma cruzi, TULAHUEN, trypomastigotes, 24 h + 4 h resazurin, mean of three ± SD), 12.2 ± 1.2 µM; in assay [1], 36.4 ± 3.4 µM; in assay [2], 48.1 ± 3.9 µM; in assay [3], 10 ± 1.1 µM. For the same molecule, the “Selectivity Index T. cruzi Tulahuen Strain T” value in assay [7] (setting [8]) was determined as 11.2. Besides, the “Selectivity Index T. cruzi SN3 Strain E” value in assay [1] is listed as 3.7. Further, the CC50 in the assay with Vero cells worked out at 136 ± 14.8 µM. Also, the “Selectivity Index T. cruzi Arequipa Strain E” value in assay [2] turned out to be 2.8. Further, the “Selectivity Index T. cruzi Tulahuen Strain E” value in assay [3] is recorded as 13.7.

Consider `CN(C)c1cccc2c(S(=O)(=O)N(CCNC(=O)c3ccccn3)CCNC(=O)c3ccccn3)cccc12` [Compound 9], for which the IC50 in assay [1] turned out to be 59.6 ± 6.2 µM; in assay [2], 12.4 ± 1.2 µM; in assay [3], 39.3 ± 4.2 µM. Further, the CC50 in the assay on Vero cells came to 49.3 ± 5 µM.

Consider `O=S(=O)(c1cccc2ccccc12)N(CCNCc1ccccn1)CCNCc1ccccn1` [Compound 10], for which the half-maximal inhibitory concentration (IC50) worked out at 14.3 ± 1.8 µM in assay [1], 15.2 ± 1.8 µM in assay [2] and 12.9 ± 1.8 µM in assay [3]. Also, the CC50 in the assay with Vero cells was found to be 14.9 ± 1.3 µM.

As to `CN(CCNCc1ccccn1)CCNCc1ccccn1` [Compound 11], the IC50 in assay [1] was 21.4 ± 2 µM; in assay [2], 12.8 ± 1.7 µM; in assay [3], 30 ± 2.7 µM. Besides, in the assay on Vero cells, the CC50 is 23.3 ± 2.1 µM.

For `CN(CCNCc1ccncc1)CCNCc1ccncc1` [Compound 12], the results for the IC50 in assay [1], in assay [2] and in assay [3] were 87.5 ± 9 µM, 104 ± 12.8 µM and 95.2 ± 8.4 µM, respectively. Moreover, the CC50 with Vero cells stood at 188 ± 20.4 µM.

On to `O=S(=O)(c1cccc2cccnc12)N(CCNCc1ccccn1)CCNCc1ccccn1` [Compound 13], for which the IC50 in assay [1] was found to be 5.5 ± 4.9 µM; in assay [2] it was 12.7 ± 1.4 µM; in assay [3], 21 ± 1.8 µM. For the same molecule, the CC50 in the assay with Vero cells was 28.3 ± 2.4 µM.

Consider `c1cc2nc(c1)CNCCN(CCNCc1ccc3[nH]ncc3c1)CCNC2` [Compound 14], for which the IC50 was 25.8 ± 2.7 µM in assay [1], 18.3 ± 1.4 µM in assay [2] and 22.4 ± 2.1 µM in assay [3]. In addition, in the assay on Vero cells, the CC50 turned out to be 60.3 ± 7 µM.

In the case of `c1cc(CNCCN2CCNCc3cccc(n3)CNCC2)nc(CNCCN2CCNCc3cccc(n3)CNCC2)c1` [Compound 16], the IC50 in assay [1] was 155 ± 14.9 µM; in assay [2] it was 102 ± 9.8 µM; in assay [3] it was 129 ± 14.7 µM. Further, in the assay with Vero cells, the CC50 is 136 ± 14.7 µM.

By IC50 is commonly meant the concentration that inhibits the measured activity by half.
